# Experimental data as given in US20150018340A1, “PIPECOLATE-DIKETOAMIDES FOR TREATMENT OF PSYCHIATRIC DISORDERS” (MAX-PLANCK-GESELLSCHAFT ZUR FÖRDERUNG DER WISSENSCHAFTEN …, priority 2011, published 2015).
# Like-named read-outs stand apart in the source and are kept apart here.
# Key:
# FKBP51 (FK1 domain) = target: T1, FKBP51 (FK1 domain) (Homo sapiens, UniProt Q13451); assay: Fluorescence polarization assay, binding affinity to FKBP51 (FK1 domain); conditions: fluorescence polarization assay using tracer 2b, read-out: FKBP51FK1 IC50
# T1 sequence (Q13451 42-130 limits assumed): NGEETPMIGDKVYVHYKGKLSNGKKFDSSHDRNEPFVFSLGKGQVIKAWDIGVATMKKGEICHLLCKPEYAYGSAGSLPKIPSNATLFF
# Procedure: (§1) The binding affinites for FKBPs were determined as described in Kozany et al., ChemBioChem 10, 8, 2009, 1402-1410 using tracer 2b.
# (§2) Table 1: Chemical compounds according to formula (I) used in fluorescence polarization assay: Binding affinity to FKBP51 (FK1 domain) and FKBP52 (FK1 domain)
# FKBP52 (FK1 domain) = target: T2, FKBP52 (FK1 domain) (Homo sapiens, UniProt Q02790); assay: Fluorescence polarization assay, binding affinity to FKBP52 (FK1 domain); conditions: fluorescence polarization assay using tracer 2b, read-out: FKBP52FK1 IC50
# T2 sequence (Q02790 50-138 limits assumed): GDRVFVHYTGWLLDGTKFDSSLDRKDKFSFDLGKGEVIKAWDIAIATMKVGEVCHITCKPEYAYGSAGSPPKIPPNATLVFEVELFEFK
# Procedure: as §1, §2
IC50 (FKBP51 (FK1 domain)) [µM],IC50 (FKBP52 (FK1 domain)) [µM],IC50 (FKBP51 (FK1 domain); listed as 1*) [µM],IC50 (FKBP52 (FK1 domain); listed as 1*) [µM],IC50 (FKBP52 (FK1 domain); listed as 3*) [µM],SMILES
51.5 ± 31.9,41.6 ± 15.8,,,,"CCC(C)(C)C(=O)C(=O)N1CCC[C@H]1C(=O)O[C@H](CCc1ccc(OC)c(OC)c1)c1cccc(OCC(=O)O)c1 [Reference Example 4, 2-(3-((R)-3-(3,4-dimethoxyphenyl)-1-((S)-1-(3,3-dimethyl-2-oxopentanoyl)-pyrrolidine-2-carbonyloxy)propyl)phenoxy)acetic acid, reference compound]"
> 100,> 100,,,,"O=C(C(=O)N1CCCCC1C(=O)OCCCc1ccccc1)c1ccccc1 (stereo not drawn) [Reference Example 7, reference compound]"
,4.2 ± 0.3,,,,CC[C@@H]1CCCC[C@@]1(O)C(=O)C(=O)N1CCCC[C@H]1C(=O)O[C@H](CCc1ccc(OC)c(OC)c1)c1cccc(OCC(=O)O)c1 [Compound 3a]
38.4 ± 16.5,46.2 ± 18.8,,,,"COc1ccc(CC[C@@H](OC(=O)[C@@H]2CCCCN2C(=O)C(=O)C(C)(C)C)c2cccc(OCC(=O)O)c2)cc1OC [Reference Example 6, reference compound]"
2.02 ± 0.14,0.89 ± 0.06,,,,"COc1ccc(CC[C@@H](OC(=O)[C@@H]2CCCCN2C(=O)C(=O)[C@]2(O)CCCC[C@H]2C)c2cccc(OCCN3CCOCC3)c2)cc1OC [Compound 2, (S)—((R)-3-(3,4-dimethoxyphenyl)-1-(3-(2-morpholinoethoxy)phenyl)propyl) 1-(2-((1S,2R)-1-hydroxy-2-methylcyclohexyl)-2-oxoacetyl)piperidine-2-carboxylate]"
32.7 ± 12.3,49.2 ± 24.6,,,,"CCC(C)(C)C(=O)C(=O)N1CC=CC[C@H]1C(=O)O[C@H](CCc1ccc(OC)c(OC)c1)c1cccc(OCC(=O)O)c1 [Reference Example 5, 2-(3-((R)-3-(3,4-dimethoxyphenyl)-1-((S)-1-(3,3-dimethyl-2-oxopentanoyl)-1,2,3,6-tetrahydropyridine-2-carbonyloxy)propyl)phenoxy)acetic acid, reference compound]"
,,4.2 ± 0.11,2.13 ± 0.21,,"COc1ccc(CC[C@@H](OC(=O)[C@@H]2CCCCN2C(=O)C(=O)[C@]2(O)CCCC[C@H]2C)c2cccc(OCC(=O)O)c2)cc1OC [Compound 1, 2-(3-((R)-3-(3,4-dimethoxyphenyl)-1-((S)-1-(2-((1S,2R)-1-hydroxy-2-methylcyclohexyl)-2-oxoacetyl)piperidine-2-carbonyloxy)propyl)phenoxy) acetic acid]"
,3.5 ± 0.6,,,,CC[C@H]1CCCC[C@]1(O)C(=O)C(=O)N1CCCC[C@H]1C(=O)O[C@H](CCc1ccc(OC)c(OC)c1)c1cccc(OCC(=O)O)c1 [Compound 3b]
> 100,> 100,,,,"CC[C@@H]1CCCC[C@@]1(O)C(=O)C(=O)N1CCCCC1C(=O)OCCOc1ccc(OC)c(OC)c1 (stereo partly drawn) [Reference Example 3*, 2-(3,4-dimethoxyphenoxy)ethyl 1-(2-((1S,2R)-2-ethyl-1-hydroxy-cyclohexyl)-2-oxoacetyl) piperidine-2-carboxylate, reference compound]"
4.54 ± 0.24,2.88 ± 0.21,,,,COc1ccc(CC[C@@H](OC(=O)[C@@H]2CCCCN2C(=O)C(=O)[C@@]2(O)CCCC[C@@H]2C)c2cccc(OCC(=O)O)c2)cc1OC [Compound 1b]
4.96 ± 0.25,2.64 ± 0.25,,,,COc1ccc(CC[C@@H](OC(=O)[C@@H]2CCCCN2C(=O)C(=O)[C@@]2(O)CCCC[C@H]2C)c2cccc(OCC(=O)O)c2)cc1OC [Compound 6b]
89.5 ± 21.7,> 100,,,,"CCC(C)(C)C(=O)C(=O)N1CCCC1C(=O)OC(CCc1ccccc1)c1ccccc1 (stereo not drawn) [Reference Example 8, reference compound]"
2.83 ± 0.21,1.71 ± 0.35,,,,"COc1ccc(CC[C@@H](OC(=O)[C@@H]2CCCCN2C(=O)C(=O)c2ccc(Oc3ccccc3)cc2)c2cccc(OCC(=O)O)c2)cc1OC [Compound 10, 2-(3-((R)-3-(3,4-dimethoxyphenyl)-1-((S)-1-(2-oxo-2-(4-phenoxy-phenyl)acetyl)piperidine-2-carbonyloxy)propyl)phenoxy)acetic acid]"
4.1 ± 0.8,5.6 ± 1.1,,,,"COc1ccc(CC[C@@H](OC(=O)[C@@H]2CCCCN2C(=O)C(=O)c2cc(Cl)cc(Cl)c2)c2cccc(OCC(=O)O)c2)cc1OC [Compound 11, 2-(3-((R)-3-(3,4-dimethoxyphenyl)-1-((S)-1-(2-oxo-2-(3,5-dichloro-phenyl)acetyl)piperidine-2-carbonyloxy)propyl)phenoxy)acetic acid]"
,,,,9.5 ± 1.3,"CC[C@@H]1CCCC[C@@]1(O)C(=O)C(=O)N1CCCC[C@H]1C(=O)O[C@H](CCc1ccc(OC)c(OC)c1)c1cccc(OCC(=O)O)c1 [Compound 3, 2-(3-((R)-3-(3,4-dimethoxyphenyl)-1-((S)-1-(2-((1S,2R)-2-ethyl-1-hydroxy-cyclohexyl)-2-oxoacetyl)piperidine-2-carbonyloxy)propyl)phenoxy) acetic acid]"
4.13 ± 0.2,2.64 ± 0.19,,,,"COc1ccc(CC[C@@H](OC(=O)[C@@H]2CCCCN2C(=O)C(=O)C2(O)CCCCC2C)c2cccc(OCC(=O)O)c2)cc1OC (stereo in doubt) [Compound 6, 2-(3-((R)-3-(3,4-dimethoxyphenyl)-1-((S)-1-(2-((1R,2R)-1-hydroxy-2-methylcyclohexyl)-2-oxoacetyl)piperidine-2-carbonyloxy)propyl)phenoxy) acetic acid]"
4.27 ± 0.19,2.44 ± 0.17,,,,COc1ccc(CC[C@@H](OC(=O)[C@@H]2CCCCN2C(=O)C(=O)[C@]2(O)CCCC[C@H]2C)c2cccc(OCC(=O)O)c2)cc1OC [Compound 1a]
29.4 ± 8.5,11.7 ± 6.4,,,,"COc1ccc(OCCOC(=O)C2CCCCN2C(=O)C(=O)[C@]2(O)CCCC[C@H]2C)cc1OC (stereo partly drawn) [Reference Example 2*, 2-(3,4-dimethoxyphenoxy)ethyl 1-(2-((1S,2R)-1-hydroxy-2-methyl-cyclohexyl)-2-oxoacetyl)piperidine-2-carboxylate, reference compound]"
15.2 ± 1.04,9.53 ± 1.35,,,,COc1ccc(CC[C@@H](OC(=O)[C@@H]2CCCCN2C(=O)C(=O)C2CCCCC2)c2cccc(OCC(=O)O)c2)cc1OC [Compound 8]
19.3 ± 6.6,11.6 ± 1.6,,,,"COc1ccc(CC[C@@H](OC(=O)[C@@H]2CCCCN2C(=O)C(=O)c2cc(OC)c(OC)c(OC)c2)c2cccc(OCC(=O)O)c2)cc1OC [Compound 9, 2-(3-((R)-3-(3,4-dimethoxyphenyl)-1-((S)-1-(2-oxo-2-(3,4,5-tri-methoxyphenyl)acetyl)piperidine-2-carbonyloxy)propyl)phenoxy)acetic acid]"
8.5 ± 0.6,6.2 ± 0.5,,,,"COc1ccc(CC[C@@H](OC(=O)[C@@H]2CCCCN2C(=O)C(=O)[C@]2(O)CCCC[C@H]2CO)c2cccc(OCC(=O)O)c2)cc1OC [Compound 5, 2-(3-((R)-3-(3,4-dimethoxyphenyl)-1-((S)-1-(2-((1S,2S)-1-hydroxy-2-(hydroxylmethyl)cyclohexyl)-2-oxoacetyl)piperidine-2-carbonyloxy)propyl)phenoxy)acetic acid]"
55.6 ± 13.1,61.2 ± 23.7,,,,"CC(C)C(C)(C)C(=O)C(=O)N1CCCC[C@H]1C(=O)O[C@H](CCc1ccccc1)c1ccccc1 [Reference Example 9, reference compound]"
,9.77 ± 1.48,,,,"CCC1CCCCC1(O)C(=O)C(=O)N1CCCC[C@H]1C(=O)O[C@H](CCc1ccc(OC)c(OC)c1)c1cccc(OCC(=O)O)c1 (stereo in doubt) [Compound 7, 2-(3-((R)-3-(3,4-dimethoxyphenyl)-1-((S)-1-(2-((1R,2R)-2-ethyl-1-hydroxycyclohexyl)-2-oxoacetyl)piperidine-2-carbonyloxy)propyl)phenoxy) acetic acid]"
4.18 ± 0.15,2.2 ± 0.13,,,,COc1ccc(CC[C@@H](OC(=O)[C@@H]2CCCCN2C(=O)C(=O)[C@]2(O)CCCC[C@@H]2C)c2cccc(OCC(=O)O)c2)cc1OC [Compound 6a]
> 100,> 100,,,,"COc1ccc(CCOC(=O)C2CCCCN2C(=O)C(=O)[C@]2(O)CCCC[C@H]2C)cc1OC (stereo partly drawn) [Reference Example 1*, 3,4-dimethoxyphenethyl 1-(2-((1S,2R)-1-hydroxy-2-methyl-cyclohexyl)-2-oxoacetyl)piperidine-2-carboxylate, reference compound]"
9.66 ± 0.83,3.72 ± 1.02,,,,"CC[C@@H]1CCCC[C@@]1(O)C(=O)C(=O)N1CCCC[C@H]1C(=O)O[C@H](CCc1ccc(OC)c(OC)c1)c1cccc(OCCN2CCOCC2)c1 [Compound 4, (S)—((R)-3-(3,4-dimethoxyphenyl)-1-(3-(2-morpholinoethoxy)phenyl)propyl)1-(2-((1S,2R)-2-ethyl-1-hydroxycyclohexyl)-2-oxoacetyl)piperidine-2-carboxylate]"
